Measurements taken from US20140378451A1, “Cannabinoid-2-Receptor Agonists” (ISIS INNOVATION LIMITED, priority 2011, published 2014).

Assays:
[1] = target: T1, hCB2R (Homo sapiens, UniProt P34972); assay: cAMP assay on hCB2R clone 3D8.3 (transfected CHO-K1 cells); type: cell-based; settings: for IC50: cAMP, hCNR2 CHO-K1 3D8.3 clone, read-out: Assay 1 IC50
T1 construct: unnamed tag of the plasmid; expressed in transfected cells
Method: (§1) Compounds were evaluated for their CB2R agonist potency in the following assays:
Assay 1—cAMP Assay on hCB2R Clone 3D8.3:
Chinese hamster ovary cells (CHO)-K1 were transfected with hCB2R plasmid using Genejuice (Merck). After 48 h the cells were transferred into flasks in the presence of the antibiotic G418 and expanded (with continuous replenishment of the antibiotic). Two single-cell cloning rounds were then performed, followed by verification of the presence of the tag of the plasmid and confirming the receptor was functional in cAMP studies. For the screening of compounds: Briefly, hCNR2 CHO-K1 (3D8.3 clone) cells were plated in Optimem+1% FCS (30000 cells, 100 ul per well) in half-area 96-well plates (Corning 3885) and placed in an incubator 37° C. 5% CO2 overnight. Next day, the medium was aspirated and replaced with ‘antibody solution’ (22.5 ul) (provided concentrated, diluted 1 in 3 with ‘assay buffer’ provided). The freshly made compounds (at a ×4 final concentration) or solvent alone (1.2% DMSO) were added to the wells and incubated for 30 minutes in a 37° C. incubator 5% CO2. A mixture of: Lysis solution (38%), substrates (Emerald-II™ (10%) and Galacton-Star® (2%)) and enzyme donor-labeled cAMP (50%) was added to the wells and incubated in the dark for one hour at room temperature. 30 μl of detection reagent (enzyme acceptor, provided) was then added to the wells and incubated in the dark for 3 hours at room temperature. The luminescence was then read with a Perkin-Elmer luminometer.

[2] = target: T2, hCNR2 (CB2R) (Homo sapiens, UniProt P34972); assay: DiscoveRx cAMP Hunter Express GPCR assay (hCNR2 CHO-K1 cells); type: cell-based; settings: cAMP Hunter eXpress, hCNR2 CHO-K1 cells; read-out: Assay 2 IC50
T2 construct: host or cells: CHO-K1 (purchased recombinant cell line)
Method: as §1
Assay 2—DiscoveRx cAMP Hunter Express GPCR Assay
The cAMP Hunter eXpress GPCR assay kit and cells used are from DiscoveRx Corporation (95-0040E2) using the manufacturer's protocol without the optional IBMX step. […] Briefly, hCNR2 CHO-K1 cells were plated in the provided medium (50 ul per well) in half-area 96-well plates (Corning 3885) and placed in an incubator 37° C. 5% CO2 overnight. Next day, the medium was aspirated and replaced with ‘antibody solution’ (22.5 ul) (provided concentrated, diluted 1 in 3 with ‘assay buffer’ provided). The freshly made compounds (at a ×4 final concentration) or solvent alone (1.2% DMSO) were added to the wells and incubated for 30 minutes in a 37° C. incubator 5% CO2. A mixture of lysis solution and two substrates (provided with the DiscoveRx kit) was added to the wells and incubated in the dark for one hour at room temperature. A detection reagent (provided) was then added to the wells and incubated in the dark for 3 hours at room temperature. The luminescence was then read with a Perkin-Elmer luminometer.

T1 sequence (P34972 whole entry): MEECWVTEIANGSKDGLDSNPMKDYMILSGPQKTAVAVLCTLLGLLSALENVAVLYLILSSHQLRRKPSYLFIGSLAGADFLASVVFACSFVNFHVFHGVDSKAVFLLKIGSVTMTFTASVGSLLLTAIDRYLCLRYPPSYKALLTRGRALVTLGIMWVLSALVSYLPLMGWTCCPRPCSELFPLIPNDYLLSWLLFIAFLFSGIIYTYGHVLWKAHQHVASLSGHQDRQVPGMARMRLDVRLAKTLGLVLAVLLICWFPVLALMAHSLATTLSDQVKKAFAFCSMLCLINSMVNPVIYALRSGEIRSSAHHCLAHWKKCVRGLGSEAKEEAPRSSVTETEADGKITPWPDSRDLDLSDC
T2 sequence (P34972 whole entry): as above

| IC50 [1] [nM] | IC50 [2] [nM] | Assay 1 activity at 3 μM [1] [% activity at 3 μM] | Compound |
| --- | --- | --- | --- |
| 231 |  |  | N#Cc1ccccc1CSc1nnc2c(n1)[nH]c1cccc(C3CC3)c12 [Example 51, 2″-(((9-Cyclopropyl-5H-[1,2,4]triazino[5,6-b]indol-3-yl)thio)methyl)benzonitrile] |
| 3550 |  |  | N#Cc1ccccc1C[S+]([O-])c1nnc2c(n1)[nH]c1ccccc12 (centres unmarked) [Example 32, 2′-(((5H-[1,2,4]Triazino[5,6-b]indol-3-yl)sulfinyl)methyl)benzonitrile] |
| 16 |  |  | N#Cc1ccccc1CSc1nnc2c3c(Br)cccc3n(C(=O)C3CC3)c2n1 [Example 44, 2′-(((9-Bromo-5-(cyclopropanecarbonyl)-5H-[1,2,4]triazino[5,6-b]indol-3-yl)thio)methyl)benzonitrile] |
| 129 | 33 |  | O=[N+]([O-])c1ccccc1CSc1nnc2c(n1)[nH]c1ccccc12 [Example 1, 3-((2′-nitrobenzyl)thio)-5H-[1,2,4]triazino[5,6-b]indole] |
| 840 | 75 |  | O=C(c1ccccc1)n1c2ccccc2c2nnc(SCc3ccccc3[N+](=O)[O-])nc21 [Example 7, (3-((2′-Nitrobenzyl)thio)-5H-[1,2,4]triazino[5,6-b]indol-5-yl)(phenyl)methanone] |
| 95 | 95 |  | CCCCSc1nnc2c(n1)[nH]c1ccccc12 [Example 28, 3-(butylthio)-5H-[1,2,4]triazino[5,6-b]indole] |
| 2180 |  |  | O=C(O)c1ccccc1CSc1nnc2c(n1)[nH]c1ccccc12 [Example 46, 2′-(((5H-[1,2,4]Triazino[5,6-b]indol-3-yl)thio)methyl)benzoic] |
| 45 |  |  | N#Cc1ccccc1CSc1nnc2c3ccccc3n(Cc3ccc(F)cc3)c2n1 [Example 37, 2′-(((5-(4″-Fluorobenzyl)-5H-[1,2,4]triazino[5,6-b]indol-3-yl)thio)methyl)benzonitrile] |
| 57 | 27 |  | N#Cc1ccccc1CSc1nnc2c3ccccc3n(C(=O)c3cccc(C(F)(F)F)c3)c2n1 [Example 19] |
| 144 |  |  | N#Cc1ccccc1CSc1nnc2c3ccccc3n(CC3CC3)c2n1 [Example 41, 2′-((5-(Cyclopropylmethyl)-5H-[1,2,4]triazino[5,6-b]indol-3-ylthio)methyl)benzonitrile] |
|  |  | ~60 | COc1ccc(C(=O)n2c3ccccc3c3nnc(SCc4ccccc4C#N)nc32)cc1OC [Example 17] |
| 106 |  |  | CCCCn1c2ccccc2c2nnc(SCc3ccccc3C#N)nc21 [Example 31, 2′-(((5-Butyl-5H-[1,2,4]triazino[5,6-b]indol-3-yl)thio)methyl)benzonitrile] |
| 1900 | 539 |  | O=[N+]([O-])c1cccc(F)c1CSc1nnc2c(n1)[nH]c1ccccc12 [Example 12, 3-((2′-Fluoro-6′-nitrobenzyl)thio)-5H-[1,2,4]triazino[5,6-b]indole] |
| 160 | 112 |  | N#Cc1ccccc1CSc1nnc2c(n1)[nH]c1ccccc12 [Example 2, 3-((2′-Cyanobenzyl)thio)-5H-[1,2,4]triazino[5,6-b]indole] |
| 4300 |  |  | Cc1ccccc1-c1cccc2[nH]c3nc(SCc4ccccc4C#N)nnc3c12 [Example 48, 2″-(((9-(o-Tolyl)-5H-[1,2,4]triazino[5,6-b]indol-3-yl)thio)methyl)benzonitrile] |
|  |  | ~40 | O=[N+]([O-])c1ccccc1CSc1nnc2c3ccccc3n(Cc3ccccc3)c2n1 [Example 14, 5-Benzyl-3-((2′-nitrobenzyl)thio)-5H-[1,2,4]triazino[5,6-b]indole] |
| 31 | 46 |  | N#Cc1ccccc1CSc1nnc2c3ccccc3n(C(=O)c3ccco3)c2n1 [Example 23, 2′-(((5-(Furan-2″-carbonyl)-5H-[1,2,4]triazino[5,6-b]indol-3-yl)thio)methyl)benzonitrile] |
| 181 |  |  | N#Cc1ccccc1CSc1nnc2c3ccccc3n(C(=O)C3CC3)c2n1 [Example 42, 2′-(((5-(Cyclopropanecarbonyl)-5H-[1,2,4]triazino[5,6-b]indole-3-yl)thio)methyl)benzonitrile] |

| IC50 [1] [nM] | IC50 [2] [nM] | Assay 1 activity at 3 μM [1] [% activity at 3 μM] | Compound |
| --- | --- | --- | --- |
| 270 |  |  | N#Cc1ccccc1CSc1nnc2c3ccccc3n(CC3CCCCC3)c2n1 [Example 36, 2′-(((5-(Cyclohexylmethyl)-5H-[1,2,4]triazino[5,6-b]indol-3-yl)thio)methyl)benzonitrile] |
| 20 |  |  | N#Cc1ccccc1CSc1nnc2c3c(Br)cccc3n(CC3CC3)c2n1 [Example 43, 2′-(((9-Bromo-5-(cyclopropylmethyl)-5H-[1,2,4]triazino[5,6-b]indol-3-yl)thio)methyl)benzonitrile] |
| 43 | 48 |  | COC(=O)CCC(=O)n1c2ccccc2c2nnc(SCc3ccccc3C#N)nc21 [Example 26, methyl 4″-(3-((2′-cyanobenzyl)thio)-5H-[1,2,4]triazino[5,6-b]indol-5-yl)-4″-oxobutanoate] |
| 674 |  |  | CCn1c2ccccc2c2nnc(SCc3ccccc3C#N)nc21 [Example 30, 2′-(((5-Ethyl-5H-[1,2,4]triazino[5,6-b]indol-3-yl)thio)methyl)benzonitrile] |
| 76 |  |  | N#Cc1ccccc1CSc1nnc2c3ccccc3n(S(=O)(=O)c3ccccc3)c2n1 [Example 34, 2′-(((5-(Phenylsulfonyl)-5H-[1,2,4]triazino[5,6-b]indol-3-yl)thio)methyl)benzonitrile] |
| 549 |  |  | N#Cc1ccccc1CSc1nnc2c3ccccc3n(CC(=O)C3CC3)c2n1 [Example 39, 2′-((5-(2-Cyclopropyl-2-oxoethyl)-5H-[1,2,4]triazino[5,6-b]indol-3-ylthio)methyl)benzonitrile] |
| 11 |  |  | c1ccc(-c2nn[nH]n2)c(CSc2nnc3c(n2)[nH]c2ccccc23)c1 [Example 47] |
| > 3000 |  |  | CC(=O)n1c2ccccc2c2nnc(SCc3ccccc3C#N)nc21 [Example 29, 2′(((5-Acetyl-5H-[1,2,4]triazino[5,6-b]indol-3-yl)thio)methyl)benzonitrile] |
| 38 | 113 |  | N#Cc1ccccc1CSc1nnc2c3ccccc3n(C(=O)c3ccccc3)c2n1 [Example 25] |
| 45 | 42 |  | COC(=O)CCCC(=O)n1c2ccccc2c2nnc(SCc3ccccc3C#N)nc21 [Example 27, methyl 5″-(3-((2′-cyanobenzyl)thio)-5H-[1,2,4]triazino[5,6-b]indol-5-yl)-5″-oxopentanoate] |
| 1760 |  |  | N#Cc1ccccc1CSc1nnc2c(n1)[nH]c1cccc(-c3ccsc3)c12 [Example 50, 2″-(((9-(Thiophen-3′-yl)-5H-[1,2,4]triazino[5,6-b]indol-3-yl)thio)methyl)benzonitrile] |
|  | 215 |  | Cc1ccccc1CSc1nnc2c(n1)[nH]c1ccccc12 [Example 15, 3-((2′-Methylbenzyl)thio)-5H-[1,2,4]triazino[5,6-b]indole] |
| 72 |  |  | N#Cc1ccccc1CSc1nnc2c3ccccc3n(C(=O)[C@@H]3C[C@H]3c3ccccc3)c2n1 (stereo in doubt) [Example 38, 2′-((5-(2″-Phenylcyclopropanecarbonyl)-5H-[1,2,4]triazino[5,6-b]indol-3-ylthio)methyl)benzonitrile] |
| ~600 |  |  | N#Cc1ccccc1CSc1nnc2c3ccccc3n(Cc3ccc(Cl)cc3)c2n1 [Example 5, 2′(((5-(4″-Chlorobenzyl)-5H-[1,2,4]triazino[5,6-b]indol-3-yl)thio)methyl)benzonitrile] |
| 617 |  |  | O=[N+]([O-])c1ccc(CSc2nnc3c(n2)[nH]c2ccccc23)cc1 [Example 33, 3-((4′-Nitrobenzyl)thio)-5H-[1,2,4]triazino[5,6-b]indole] |
| 2620 |  |  | COc1ccc(-c2cccc3[nH]c4nc(SCc5ccccc5C#N)nnc4c23)cc1 [Example 49, 2″-(((9-(4′-Methoxyphenyl)-5H-[1,2,4]triazino[5,6-b]indol-3-yl)thio)methyl)benzonitrile] |
| 628 |  |  | C[C@@H]1C[C@H]1C(=O)n1c2ccccc2c2nnc(SCc3ccccc3C#N)nc21 (relative stereo) [Example 40, 2′-((5-(2″-Methylcyclopropanecarbonyl)-5H-[1,2,4]triazino[5,6-b]indol-3-ylthio)methyl)benzonitrile] |

| Compound | IC50 [1] [nM] | IC50 [2] [nM] | Assay 1 activity at 3 μM [1] [% activity at 3 μM] |
| --- | --- | --- | --- |
| O=[N+]([O-])c1ccc(CSc2nnc3c(n2)[nH]c2ccccc23)c([N+](=O)[O-])c1 [Example 11, 3-((2′,4′-Dinitrobenzyl)thio)-5H-[1,2,4]triazino[5,6-b]indole] | 3900 | 576 |  |
